{"source": "patent US9433655B2", "about": "“Composition comprising natural substance extract as active ingredient for preventing or treating acute renal failure” (priority 2012, dated 2016)", "key": {"renal epithelial cells": {"test_system": "renal epithelial cells", "assay": "Measurement of GSH content", "assay_type": "cell-based", "conditions": "single treatment of cisplatin 25 μg/ml, 24 hours", "method": "Monochlorobimane was employed to determine the GSH levels, and experiments for measuring GSH content were performed using the […] with reference to the conventional method of Fernandez-Checa and Kaplowitz. The number of cells, in which GSH is detectable, was determined by historical data and preliminary experiment, and 2×10^6 cells were seeded to each well of culture plate. After culture for 24 hours, the dilution fold of the final concentration of the drug determined as an active drug was considered and calculated, based on the results of MTT Assay and crystal violet Assay. […] Cells were harvested using 0.25% Trypsin-EDTA, and then centrifuged at 1,200 rpm for 3 minutes. Cold buffer was added to the resulting cell pellet, followed by sonication for 30 seconds. Centrifugation was carried out at 10,000 rpm for 15 minutes, and then the supernatant was collected and used for BCA protein quantification. 1 g/ml of MPA diluted in D.W was added to the supernatant at a volume ratio of 4:1, followed by immediately vortexing. […] End-point fluorescence wavelength at Ex: 360 nm and Em: 460 nm was measured at S=70. Data of the experimental results were analyzed using a Microsoft Excel program, and post-test analysis using Bonferroni multiple comparison test was performed to investigate the differences between the groups. p<0.001 was considered statistically significant."}, "p53": {"test_system": "p53", "assay": "Examination of p53 expression pattern (Western blot)", "assay_type": "cell-based", "conditions": "single treatment of cisplatin", "method": "Cells treated with Elsholtziae Herba extract and/or cisplatin were harvested, and RIPA buffer was added thereto, followed by sonication for cell lysis. Centrifugation was performed at 15,000 rpm for 15 minutes, and the supernatant was obtained, and subjected to protein quantification by BCA assay. The protein was loaded at an amount of 20 μg/10 μl in each well, and 12% SDS-PAGE polyacrylamide gel electrophoresis was performed, and transferred to a nitrocellulose membrane. The membrane was blocked with 5% Skim milk-TBST, and then treated with primary antibody (anti-p53/dilution—1:300). p53 was detected with HRP conjugated anti-mouse IgG (dilution—1:5000) and immune reaction was visualized by ECL. The measurement results are shown as Mean±S.E.M. (standard error of mean) in FIG. 6."}}, "note": "Entries after “also recorded” stand apart in the source; their conditions may differ."}
{"molecule": "N.N.[Cl][Pt][Cl]", "note": "[cisplatin, cis-diaminedichloroplatinum II]", "values": [{"measurement": "GSH content", "setting": "renal epithelial cells", "result": "reduced GSH content"}, {"measurement": "p53 expression level", "setting": "p53", "result": "increased p53 expression; also recorded: remarkably increased"}]}
